Data on 11 molecules can be found in publication PMC10046946, “Novel Phthalic-Based Anticancer Tyrosine Kinase Inhibitors: Design, Synthesis and Biological Activity” (Current Issues in Molecular Biology, 2023).

Data set [1] relates to HepG2 (human liver cancer). Kind of data set: MTT cell proliferation assay, HepG2. The note with it: Homo sapiens, HepG2, 72 h, HepG2, 72 h of exposition, read-out: Anti-proliferative activity IC50, HepG2. The class given is cell-based. The procedure: (§1) Tests to determine the effects of the synthesized compounds on cell viability and the half-maximal inhibitory concentration (IC50) were performed using the MTT assay, as described in our prior work.
(§2) The target compounds 5, 6, 8–12, 14, 15, 17–22 and 24–26 were tested for antiproliferative activity against six cancer cell lines: K562 (chronic myelogenous leukemia), HL-60 (promyelocytic leukemia), MCF-7 (breast adenocarcinoma), HepG2 (human liver cancer), A549 (lung carcinoma) and OKP-GS (renal cell carcinoma). The RPMI 1788 cells (B lymphocyte, human) were used as a control to evaluate the system toxicity of the studied compounds to normal cells. Sorafenib, nilotinib and lapatinib were utilized as reference standards for comparison.

Another data set relates to A549 (lung carcinoma). Briefly: MTT cell proliferation assay, A549. The class given is cell-based. The note with it: Homo sapiens, A549, 72 h of exposition, read-out: Anti-proliferative activity IC50, A549. The procedure: as §1, §2
Data set [2] has as its system OKP-GS (renal cell carcinoma). Kind of data set: MTT cell proliferation assay, OKP-GS. In kind it is cell-based. The note with it: 72 h of exposition, read-out: Anti-proliferative activity IC50, OKP-GS. The procedure: as §1, §2
The test system of data set [3] is MCF-7 (breast adenocarcinoma). Kind of data set: MTT cell proliferation assay, MCF-7. The note with it: Homo sapiens, MCF7, MCF-7, 72 h of exposition, read-out: Anti-proliferative activity IC50, MCF-7. The class given is cell-based. The procedure: as §1, §2
Data set [4] relates to HL-60 (promyelocytic leukemia). Briefly: MTT cell proliferation assay, HL-60. In kind it is cell-based. The note with it: Homo sapiens, HL-60, 72 h of exposition, read-out: Anti-proliferative activity IC50, HL-60. The method, then: as §1, §2
For data set [5], the system named is RPMI 1788 cells (B lymphocyte, human). Kind of data set: MTT cell proliferation assay, normal RPMI 1788 cells. The class given is cell-based. The note with it: normal human lymphoblastoid cells RPMI 1788, 72 h of exposition, read-out: Anti-proliferative activity IC50, RPMI 1788. The procedure:
as §1, §2

Data set [6] has as its system K562 (chronic myelogenous leukemia). Briefly: MTT cell proliferation assay, K562. In kind it is cell-based. The note with it: Homo sapiens, K562, 72 h of exposition, read-out: Anti-proliferative activity IC50, K562. The method, then:
as §1, §2

Another data set relates to K562 cell line. Kind of data set: ROS determination (DCFH-DA, flow cytometry). In kind it is cell-based. The note with it: 48 h.
The test system of data set [7] is K562 cells. Kind of data set: Cell cycle analysis (propidium iodide, flow cytometry). The note with it: 48 h. The class given is cell-based. The procedure:
Tumor cells were seeded on a 6-well plate at a density of 400,000 per well for K562. Test compounds 5, 14 and 15 were added at concentrations of 1, 5 and 10 μM in duplicate for 48 h. The methodology and analysis of the obtained data were performed as described in our prior work.
As shown above, compounds 5, 14 and 15 had significant antiproliferative activities, which is why their influences on the cell cycle and apoptosis level were determined, with the aim of understanding whether these effects are cytostatic or cytotoxic. In the cell cycle experiments, K562 cells were used. […] For the determination of changes in the distribution of cells in the phases of the cell cycle, the widely employed method of staining the cells with propidium iodide was used.

The test system of data set [8] is K562 cells. Kind of data set: Annexin V-FITC/PI apoptosis assay. The note with it: 48 h. In kind it is cell-based. The procedure:
K562 tumor cells were plated on a 6-well plate at a density of 400,000 per well. Test compounds 5, 14 and 15 were added at concentrations of 1, 5 and 10 μM in duplicate for 48 h. The methodology and analysis of the obtained data were performed as described in our prior work.
The effects of compounds 5, 14 and 15 on cell apoptosis were examined using the Annexin V-FITC Kit (Beckman Coulter, Brea, CA, USA) according to the protocols provided. The Annexin V-FITC Kit is an apoptosis detection kit based on the binding properties of annexin V to phosphatidylserine (PS) and on the DNA intercalating capability of propidium iodide (PI). K562 cells were treated with compound 5, 14 and 15 at 1, 5 and 10 μM for 48 h, after which annexin V/PI binding was measured by flow cytometry.

Protocol for K562 cell line: The redox status was assessed using the K562 cell line. […] Then, the cells were washed to remove the 2′,7′-dichlorodihydrofluorescein diacetate by centrifugation at 1000 rpm for 5 min. The measurements were conducted using a Cytomics FC500 Beckman Coulter flow cytometer (FL1 channel for DCF).

With `COc1ccc(C(=O)N2CCN(C(=O)c3cccc(C(=O)Nc4cc(-n5cnc(C)c5)cc(C(F)(F)F)c4)c3)CC2)cc1` [Compound 13, 3-(4-(4-Methoxybenzoyl)piperazine-1-carbonyl)-N-(3-(4-methyl-1H-imidazol-1-yl)-5-(trifluoromethyl)-phenyl)benzamide], the melting point lay in the range of 144 to 146 °C.
The molecule `CNC(=O)c1cc(Oc2ccc(NC(=O)c3ccc(C(=O)Nc4cc(-n5cnc(C)c5)cc(C(F)(F)F)c4)cc3)cc2)ccn1` [Compound 23, N1-(3-(4-methyl-1H-imidazol-1-yl)-5-(trifluoromethyl)phenyl)-N4-(4-((2-(methylcarbamoyl)pyridin-4-yl)oxy)phenyl)terephthalamide] yielded a melting point of 299 to 300 °C.
`Cc1cn(-c2cc(NC(=O)c3ccc(C(=O)Nc4cc(-n5cnc(C)c5)cc(C(F)(F)F)c4)cc3)cc(C(F)(F)F)c2)cn1` [Compound 22, N1,N4-bis(3-(4-methyl-1H-imidazol-1-yl)-5-(trifluoromethyl)phenyl)terephthalamide] returned a melting point of 295 to 296 °C. Further, the half-inhibitory concentration (IC50) in data set [1] is above 50 µM. Further, the IC50 with A549 (lung carcinoma) was above 50 µM. Besides, the IC50 in [2] was above 50 µM. In addition, in [3], the 50% inhibitory concentration (IC50) is above 50 µM. Besides, the half-maximal inhibitory concentration (IC50) in [4] is above 50 µM. The concentration for half-maximal inhibition (IC50) in data set [5] is above 50 µM. Further, the IC50 in [6] is above 50 µM.
On to `Cc1cn(-c2cc(NC(=O)c3ccc(C(=O)N4CCN(C(=O)c5ccccc5F)CC4)cc3)cc(C(F)(F)F)c2)cn1` [Compound 26, 4-(4-(2-fluorobenzoyl)piperazine-1-carbonyl)-N-(3-(4-methyl-1H-imidazol-1-yl)-5-(trifluoromethyl)phenyl)-benzamide], for which the melting point fell in the range of 142 to 145 °C. Besides, in [1], the IC50 came out at 44.3 ± 4.79 µM. Moreover, the IC50 with A549 (lung carcinoma) was above 50 µM. In addition, the half-maximal inhibitory concentration (IC50) in data set [2] is above 50 µM. Besides, the IC50 in [3] came to 48.8 ± 1.17 µM. Further, the IC50 in [4] was determined as 26.4 ± 1.73 µM. The IC50 in data set [5] is 23.97 ± 0.03 µM. The IC50 in data set [6] stood at 18.5 ± 0.73 µM.
`Cc1cn(-c2cc(NC(=O)c3ccc(C(=O)N4CCN(C(=O)c5cccc(F)c5)CC4)cc3)cc(C(F)(F)F)c2)cn1` [Compound 27, 4-(4-(3-fluorobenzoyl)piperazine-1-carbonyl)-N-(3-(4-methyl-1H-imidazol-1-yl)-5-(trifluoromethyl)phenyl)-benzamide] displayed a melting point of 110 to 113 °C. Further, the IC50 in data set [1] is 38.6 ± 1.11 µM. Further, the half-maximal inhibitory concentration (IC50) in the data set with A549 (lung carcinoma) is above 50 µM. The IC50 in [2] is above 50 µM. Further, in data set [3], the IC50 amounted to 49.4 ± 0.67 µM. The IC50 in data set [4] was found to be 26 ± 4.15 µM. For the same molecule, in data set [5], the IC50 is 24.08 ± 0.07 µM. Also, the IC50 in [6] was determined as 22.2 ± 2.12 µM.
Turning to `O=C(Nc1cccc(C(F)(F)F)c1)c1ccc(C(=O)N2CCN(C(=O)c3cccc(F)c3)CC2)cc1` [Compound 21, 4-(4-(3-Fluorobenzoyl)piperazine-1-carbonyl)-N-(3-(trifluoromethyl)phenyl)benzamide], the IC50 (in [1]; with A549 (lung carcinoma); in [2]; in [3]; in data set [4]; in data set [5]) was above 50 µM each time. In addition, the IC50 in data set [6] is above 50 µM.
With `Cc1cn(-c2cc(NC(=O)c3cccc(C(=O)N4CCN(C(=O)c5cccc(F)c5)CC4)c3)cc(C(F)(F)F)c2)cn1` [Compound 15, 3-(4-(3-Fluorobenzoyl)piperazine-1-carbonyl)-N-(3-(4-methyl-1H-imidazol-1-yl)-5-(trifluoromethyl)phenyl)-benzamide], the melting point was 130 to 135 °C. Moreover, the IC50 in [1] stood at 45.8 ± 1.76 µM. Further, in the data set with K562 cell line (K562, 5 µM), the “ROS Level, % of Control” value was 92.89 % of Control. For the same molecule, the “ROS Level, % of Control” value in the data set with K562 cell line (K562, 10 µM) is 87.87 % of Control. Besides, in the data set with K562 cell line (K562, 20 µM), the “ROS Level, % of Control” value is recorded as 94.07 % of Control. The IC50 with A549 (lung carcinoma) is above 50 µM. For the same molecule, in the data set with K562 cells [7] (K562, 1 µM), the “Apoptosis, % (cell cycle analysis)” value was 17.90%; the “G1, %” value is given as 30.15%; the “G2/M, %” value came out at 48.54%; the “S, %” value was determined as 21.31%. Moreover, in the data set on K562 cells [7] (K562, 5 µM), the “Apoptosis, % (cell cycle analysis)” value is 20.54%; the “G1, %” value was 34.76%; the “G2/M, %” value is recorded as 53.65%; the “S, %” value was 11.59%. Further, in the data set with K562 cells [7] (K562, 10 µM), the “Apoptosis, % (cell cycle analysis)” value came to 32.72%; the “G1, %” value is given as 28.85%; the “G2/M, %” value stood at 62.99%; the “S, %” value came to 8.16%. Besides, the IC50 in data set [2] was above 50 µM. The IC50 in data set [3] turned out to be 27.38 ± 0.26 µM. For the same molecule, in data set [4], the IC50 was 34.8 ± 4.7 µM. In the data set with K562 cells [8] (K562, 1 µM), the “normal live cells (living cells)” value worked out at 74.91%. Also, the “normal live cells (living cells)” value in the data set on K562 cells [8] (K562, 5 µM) turned out to be 68.41%. The “normal live cells (living cells)” value in the data set on K562 cells [8] (K562, 10 µM) is reported as 60.97%. Further, the IC50 in data set [5] amounted to 29.4 ± 1.79 µM. The IC50 in data set [6] stood at 10.5 ± 2.54 µM.
The molecule `O=C(Nc1cccc(C(F)(F)F)c1)c1ccc(C(=O)N2CCN(C(=O)c3ccccc3F)CC2)cc1` [Compound 20, 4-(4-(2-Fluorobenzoyl)piperazine-1-carbonyl)-N-(3-(trifluoromethyl)phenyl)benzamide] registered a melting point of 215 to 217 °C. Besides, the IC50 in data set [1] is above 50 µM. Further, the IC50 with A549 (lung carcinoma) is above 50 µM. Besides, the concentration for half-maximal inhibition (IC50) in [2] was above 50 µM. Further, in [3], the IC50 is above 50 µM. Also, the IC50 in data set [4] was above 50 µM. Also, in [5], the IC50 is above 50 µM. In addition, the IC50 in data set [6] was above 50 µM.
`COc1ccc(C(=O)N2CCN(C(=O)c3ccc(C(=O)Nc4cc(-n5cnc(C)c5)cc(C(F)(F)F)c4)cc3)CC2)cc1` [Compound 25, 4-(4-(4-methoxybenzoyl)piperazine-1-carbonyl)-N-(3-(4-methyl-1H-imidazol-1-yl)-5-(trifluoromethyl)-phenyl)benzamide] displayed a melting point of 212 to 214 °C.
`COc1ccc(C(=O)N2CCN(C(=O)c3cccc(C(=O)Nc4cccc(C(F)(F)F)c4)c3)CC2)cc1` [Compound 7, 3-(4-(4-Methoxybenzoyl)piperazine-1-carbonyl)-N-(3-(trifluoromethyl)phenyl)benzamide] had a melting point of 72 to 74 °C.
With `CNC(=O)c1cc(Oc2ccc(NC(=O)c3ccc(C(=O)Nc4cccc(C(F)(F)F)c4)cc3)cc2)ccn1` [Compound 18, N1-(4-((2-(methylcarbamoyl)pyridin-4-yl)oxy)phenyl)-N4-(3-(trifluoromethyl)phenyl)terephthalamide], the IC50 in data set [1] is 45.9 ± 1.83 µM; in the data set with A549 (lung carcinoma), above 50 µM; in data set [2] it was 34.4 ± 2.52 µM; in data set [3], above 50 µM; in data set [4] it was above 50 µM; in data set [5], 46 ± 1.76 µM. Also, the IC50 in data set [6] stood at 26.9 µM.
